Experimental data: patent publication US20250281424A1 (New York Blood Center, Inc, priority 2020, published 2025)

Molecular target: T1, human PF4 (Homo sapiens, UniProt P02776)
T1 construct: PF4 is a 70 amino acid, lysine-rich 7.8 kDa platelet-specific protein; made in house; host or cells: Escherichia coli BL21DE3 pLysS (pT7-7) and/or Drosophila S2 cells
T1 sequence (P02776 32-101): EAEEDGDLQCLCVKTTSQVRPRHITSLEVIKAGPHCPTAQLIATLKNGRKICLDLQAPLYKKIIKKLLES
Test: Inhibition of PF4 tetramer formation (BS3 cross-linking, SDS-PAGE)
Format: biochemical
Conditions: for IC50: read-out: IC50 of PF4 tetramer formation inhibition; for inhibition at 5 µM: 5 μM inhibitor; for inhibition at 5 µM / inhibition at 10 µM / inhibition at 1 µM / inhibition at 3 µM: read-out: % inhibition of PF4 tetramer formation at single concentration of inhibitor; for inhibition at 10 µM: 10 μM inhibitor (column A)
Procedure, shortened: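 Recombinant human wild-type PF4 (E. coli-expressed, heparin-purified), 10 μg/ml in PBS, incubated with compound 15 min at 37° C or 60 min at room temperature, then cross-linked with 0.2 mM BS3 for 30 min at room temperature. Reducing 12% SDS-PAGE; bands quantified as % tetramer, trimer, dimer, monomer versus compound-free control.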

| SMILES | IC50 | inhibition at 5 µM | inhibition at 10 µM | inhibition at 1 µM (1 μM inhibitor) | inhibition at 3 µM (3 μM inhibitor (column A)) | further results |
| --- | --- | --- | --- | --- | --- | --- |
| CC(C)(C)OC(=O)N1CC[C@H]1C(=O)C1C(=O)c2ccc(S(=O)(=O)c3ccc4c(c3)C(=O)C(C(=O)[C@@H]3CCN3C(=O)OC(C)(C)C)C4=O)cc2C1=O (stereo partly drawn) [Example 138, tert-butyl (2S)-2-[5-({2-[(2S)-1-[(tert-butoxy)carbonyl]azetidine-2-carbonyl]-1,3-dioxo-2,3-dihydro-1H-inden-5-yl}sulfonyl)-1,3-dioxo-2,3-dihydro-1H-indene-2-carbonyl]azetidine-1-carboxylate] | 4.1 µM |  |  |  |  |  |
| CC[C@H](NC(=O)OCc1ccccc1)C(=O)C1C(=O)c2ccc(C(=O)c3ccc4c(c3)C(=O)C(C(=O)[C@H](CC)NC(=O)OCc3ccccc3)C4=O)cc2C1=O (stereo partly drawn) [Example 165, benzyl N—[(S)-1-(5-{2-[(2S)-2-{[(benzyloxy)carbonyl]amino}butanoyl]-1,3-dioxo-2,3-dihydro-1H-indene-5-carbonyl}-1,3-dioxo-2,3-dihydro-1H-inden-2-yl)-1-oxobutan-2-yl]carbamate] | 3.3 µM | 75% | 75% |  |  |  |
| COCCNC(=O)C1C(=O)c2ccc(C(=O)c3ccc4c(c3)C(=O)C(C(=O)NCCOC)C4=O)cc2C1=O (stereo not drawn) [Example 74, 5,5′-carbonylbis(n-(2-methoxyethyl)-1,3-dioxo-2,3-dihydro-1h-indene-2-carboxamide)] |  | 19% | 46% |  |  |  |
| O=C(NCC1CCS(=O)(=O)C1)C1C(=O)c2ccc(S(=O)(=O)c3ccc4c(c3)C(=O)C(C(=O)NCC3CCS(=O)(=O)C3)C4=O)cc2C1=O (stereo not drawn) [Example 358, N-[(1,1-dioxo-1λ^6-thiolan-3-yl)methyl]-5-[(2-{[(1,1-dioxo-1λ^6-thiolan-3-yl)methyl]carbamoyl}-1,3-dioxo-2,3-dihydro-1H-inden-5-yl)sulfonyl]-1,3-dioxo-2,3-dihydro-1H-indene-2-carboxamide] |  |  |  | 24% | 46% |  |
| Cc1ccccc1C(=O)CCC(=O)C1C(=O)c2ccc(Oc3ccc4c(c3)C(=O)C(C(=O)CCC(=O)c3ccccc3C)C4=O)cc2C1=O (stereo not drawn) [Example 259, 2-[4-(2-methylphenyl)-4-oxobutanoyl]-5-({2-[4-(2-methylphenyl)-4-oxobutanoyl]-1,3-dioxo-2,3-dihydro-1H-inden-5-yl}oxy)-2,3-dihydro-1H-indene-1,3-dione] |  |  |  | 18% | 55% |  |
| O=C1CC(=O)c2cc(C(c3ccc4c(c3)C(=O)CC4=O)(C(F)(F)F)C(F)(F)F)ccc21 [Example 13, 5-(2,2,2-trifluoro-1-(5-indan-1,3-dionyl)-1-trifluoromethyl-ethyl)-indan-1,3-dione] |  | 16% | 74% |  |  |  |
| COC(=O)c1ccccc1NC(=O)C1C(=O)c2ccc(S(=O)(=O)c3ccc4c(c3)C(=O)C(C(=O)Nc3ccccc3C(=O)OC)C4=O)cc2C1=O (stereo not drawn) [Example 97, methyl 2-{5-[(2-{[2-(methoxycarbonyl)phenyl]carbamoyl}-1,3-dioxo-2,3-dihydro-1H-inden-5-yl)sulfonyl]-1,3-dioxo-2,3-dihydro-1H-indene-2-amido}benzoate] | 8.9 µM | 100% | 100% |  |  |  |
| CC(C)CC(=O)C1C(=O)c2ccc(S(=O)(=O)c3ccc4c(c3)C(=O)C(C(=O)CC(C)C)C4=O)cc2C1=O (stereo not drawn) [Example 145, 2-(3-methylbutanoyl)-5-{[2-(3-methylbutanoyl)-1,3-dioxo-2,3-dihydro-1H-inden-5-yl]sulfonyl}-2,3-dihydro-1H-indene-1,3-dione] |  | 45% | 55% |  |  |  |
| O=C(NCCc1ccc(F)cc1)C1C(=O)c2ccc(S(=O)(=O)c3ccc4c(c3)C(=O)C(C(=O)NCCc3ccc(F)cc3)C4=O)cc2C1=O (stereo not drawn) [Example 83, N-[2-(4-fluorophenyl)ethyl]-5-[(2-{[2-(4-fluorophenyl)ethyl]carbamoyl}-1,3-dioxo-2,3-dihydro-1H-inden-5-yl)sulfonyl]-1,3-dioxo-2,3-dihydro-1H-indene-2-carboxamide] | 2.3 µM |  |  |  |  |  |
| CC(C(=O)C1C(=O)c2ccc(S(=O)(=O)c3ccc4c(c3)C(=O)C(C(=O)C(C)c3ccc(F)cc3)C4=O)cc2C1=O)c1ccc(F)cc1 (stereo not drawn) [Example 243, 2-[2-(4-fluorophenyl)propanoyl]-5-({2-[2-(4-fluorophenyl)propanoyl]-1,3-dioxo-2,3-dihydro-1H-inden-5-yl}sulfonyl)-2,3-dihydro-1H-indene-1,3-dione] |  |  |  | 19% | 21% |  |
| O=C(O)CCNC(=O)C1C(=O)c2ccc(S(=O)(=O)c3ccc4c(c3)C(=O)C(C(=O)NCCC(=O)O)C4=O)cc2C1=O (stereo not drawn) [Example 303, 3-{[5-({2-[(2-carboxyethyl)carbamoyl]-1,3-dioxo-2,3-dihydro-1H-inden-5-yl}sulfonyl)-1,3-dioxo-2,3-dihydro-1H-inden-2-yl]formamido}propanoic acid] |  |  | 60% |  |  |  |
| CC(=O)NCCCC(=O)C1C(=O)c2ccc(C(=O)c3ccc4c(c3)C(=O)C(C(=O)CCCNC(C)=O)C4=O)cc2C1=O (stereo not drawn) [Example 269, N-(4-{5-[2-(4-acetamidobutanoyl)-1,3-dioxo-2,3-dihydro-1H-indene-5-carbonyl]-1,3-dioxo-2,3-dihydro-1H-inden-2-yl}-4-oxobutyl)acetamide] |  |  |  | 14% | 50% |  |
| O=C(c1ccc2c(c1)C(=O)C(C(=O)C1CCN(C(=O)OCc3ccccc3)C1)C2=O)c1ccc2c(c1)C(=O)C(C(=O)C1CCN(C(=O)OCc3ccccc3)C1)C2=O (stereo not drawn) [Example 159, benzyl 3-[5-(2-{1-[(benzyloxy)carbonyl]pyrrolidine-3-carbonyl}-1,3-dioxo-2,3-dihydro-1H-indene-5-carbonyl)-1,3-dioxo-2,3-dihydro-1H-indene-2-carbonyl]pyrrolidine-1-carboxylate] | 3.8 µM | 85% | 90% |  |  |  |
| O=C(CCC(=O)C1C(=O)c2ccc(S(=O)(=O)c3ccc4c(c3)C(=O)C(C(=O)CCC(=O)c3cccc(Cl)c3Cl)C4=O)cc2C1=O)c1cccc(Cl)c1Cl (stereo not drawn) [Example 255, 2-[4-(2,3-dichlorophenyl)-4-oxobutanoyl]-5-({2-[4-(2,3-dichlorophenyl)-4-oxobutanoyl]-1,3-dioxo-2,3-dihydro-1H-inden-5-yl}sulfonyl)-2,3-dihydro-1H-indene-1,3-dione] |  |  |  | 18% | 42% | % inhibition of PF4 tetramer formation at single concentration of inhibitor (1 μM inhibitor, 1 µM): 9%; % inhibition of PF4 tetramer formation at single concentration of inhibitor (3 μM inhibitor (column A), 3 µM): 51% |
| CC(=O)c1cccc(NC(=O)C2C(=O)c3ccc(C(=O)c4ccc5c(c4)C(=O)C(C(=O)Nc4cccc(C(C)=O)c4)C5=O)cc3C2=O)c1 (stereo not drawn) [Example 103, N-(3-acetylphenyl)-5-{2-[(3-acetylphenyl)carbamoyl]-1,3-dioxo-2,3-dihydro-1H-indene-5-carbonyl}-1,3-dioxo-2,3-dihydro-1H-indene-2-carboxamide] | 0.5 µM | 66% | 77% |  |  |  |
| COCCOCC(=O)C1C(=O)c2ccc(Oc3ccc4c(c3)C(=O)C(C(=O)COCCOC)C4=O)cc2C1=O (stereo not drawn) [Example 396, 2-[2-(2-methoxyethoxy)acetyl]-5-({2-[2-(2-methoxyethoxy)acetyl]-1,3-dioxo-2,3-dihydro-1H-inden-5-yl}oxy)-2,3-dihydro-1H-indene-1,3-dione] |  |  |  | 14% | 17% |  |
| COC(=O)[C@H]1CCCCC1C(=O)C1C(=O)c2ccc(C(=O)c3ccc4c(c3)C(=O)C(C(=O)C3CCCC[C@@H]3C(=O)OC)C4=O)cc2C1=O (stereo in doubt) [Example 256, methyl (1S)-2-(5-{2-[(2S)-2-(methoxycarbonyl)cyclohexanecarbonyl]-1,3-dioxo-2,3-dihydro-1H-indene-5-carbonyl}-1,3-dioxo-2,3-dihydro-1H-indene-2-carbonyl)cyclohexane-1-carboxylate] |  |  |  | 13% | 32% |  |
| COc1ccc(NC(=O)C2C(=O)c3ccc(C(=O)c4ccc5c(c4)C(=O)C(C(=O)Nc4ccc(OC)cc4OC)C5=O)cc3C2=O)c(OC)c1 (stereo not drawn) [Example 96, N-(2,4-dimethoxyphenyl)-5-{2-[(2,4-dimethoxyphenyl)carbamoyl]-1,3-dioxo-2,3-dihydro-1H-indene-5-carbonyl}-1,3-dioxo-2,3-dihydro-1H-indene-2-carboxamide] |  | 36% | 70% |  |  |  |
| CC(=O)C1C(=O)c2ccc(-c3ccc4c(c3)C(=O)C(C(C)=O)C4=O)cc2C1=O (stereo not drawn) [Example 10, 2-acetyl-5-(2-acetyl-2,3-dihydro-1,3dioxo-1h-inden-5-yl)-2,3-dihydro-1,3-dioxo-1h-indene] | 1.35 µM |  |  |  |  |  |
| O=C(Cn1cnnn1)C1C(=O)c2ccc(S(=O)(=O)c3ccc4c(c3)C(=O)C(C(=O)Cn3cnnn3)C4=O)cc2C1=O (stereo not drawn) [Example 169, 5-({1,3-dioxo-2-[2-(1H-1,2,3,4-tetrazol-1-yl)acetyl]-2,3-dihydro-1H-inden-5-yl}sulfonyl)-2-[2-(1H-1,2,3,4-tetrazol-1-yl)acetyl]-2,3-dihydro-1H-indene-1,3-dione] | 3 µM | 70% | 86% |  |  |  |
| NCC(=O)C1C(=O)c2ccc(C(=O)c3ccc4c(c3)C(=O)C(C(=O)CN)C4=O)cc2C1=O (stereo not drawn) [Example 327, 2-(2-aminoacetyl)-5-[2-(2-aminoacetyl)-1,3-dioxo-2,3-dihydro-1H-indene-5-carbonyl]-2,3-dihydro-1H-indene-1,3-dione] |  |  |  | 13% | 24% |  |
